# Entries after “also recorded” stand apart in the source; their conditions may differ.
# Experiments:
# DUX4 toxicity = experiment: Caspase 3/7 activity assay (luciferase read-out) of DUX4-induced cell death; format: cell-based, human
# Text: FIGS. 14A and 14B illustrate a method for assaying cell death. FIG. 14A is a schematic diagram showing a method for assaying cell death by measuring Caspase 3/7 activity using a luciferase read-out.
# FIG. 14B presents graphical data generated from the doxycycline-inducible assay.
# The DUX4 gene encodes a transcription factor whose expression is rare, but extremely toxic. DUX4 transcription factor controls more than 100 early developmental genes. Misexpression of DUX4 is hypothesized to induce inappropriate expression of downstream genes to cause disease pathogenesis. […] Non-manifesting carriers of FSHD alleles who are found to express DUX4, point to the existence of genetic modifiers that may act to suppress DUX4 toxicity. The clinical, histopathological and molecular evidence for asymptomatic/non-manifesting carriers of FSHD is provided at FIGS. 1A-1F. As reported herein below, a genome-wide CRISPR loss-of-function library was used to identify genes that modulate DUX4 induced toxicity and act as genetic modifiers of FSHD (FIG. 1M). This powerful resource has enabled the assessment of the impact of all loss-of-function gene edits across the entire genome. This approach permitted the isolation of genes that influence survivability of DUX4 toxicity. These genes were validated in vitro by generation of individual knock-out lines, using a Caspase-3/7 assay to quantify reduced DUX4-induced apoptosis, and using inhibitor compounds to mimic gene knock-outs. These genes are also being evaluated in vivo.
# The abundance of sgRNAs in each of the LOF cell lines was measured (FIG. 12). Each sgRNA is specific to the gene. Single gene knock-outs were generated using a lenti-CRISPR plasmid. […] To determine whether the results observed with Hif1a knockout could be recapitulated using an inhibitor of Hif1a, experiments with small compound inhibitors were carried out (FIGS. 15A, 15B, 16C, 16D). […] Herbimycin A is a benzoquinone drug (used for anti-cancer treatment) that binds and inhibits heat shock protein 90 (HSP90) chaperone (tyrosine kinase inhibitor) and is known to deplete dephosphorylated HIF1a. […]
# DUX4 inducible cell line = experiment: Cell death assay: caspase fluorescence (FITC) in DUX4 inducible cell line after doxycycline; format: cell-based; conditions: after 48 hours of doxycycline treatment
# Method: FIG. 17A includes a series of micrographs. Fluorescence from labeled caspase is visible (fluorescein isothiocynate (FITC)) in a DUX4 inducible cell line after 48 hours of doxy cy cline treatment.
# Cell death assay were then used to validate single knock-outs cell lines (FIGS. 17A-17C).
# [1] = tested on: FSHD biomarkers MBDL3L3, TRIM42 and ZSCAN4; experiment: Quantitative real-time PCR of FSHD biomarkers in patient myotubes; format: cell-based, human
# Method: One common way to test potential therapies for FSHD is to measure a reduction in FSHD biomarker genes (FIG. 16B). […] Briefly, patient primary myoblasts (17A and 16A) were placed in differentiation media. At day four, drug compounds were added, and myotubes were harvested 24 hours later. RNA extraction and cDNA synthesis was performed. Quantitative real-time PCR for FSHD biomarkers levels of MBDL3L3, TRIM42 and ZSCAN4 was performed. Results indicated a significant reduction in biomarker levels for the majority of drugs tested.
# DUX4-injected zebrafish = DUX4-injected zebrafish model of FSHD; format: in vivo; conditions: drug 24 hr post-injection; day 7; compared to DUX4-injected no drug control group
# Text: FSHD has proven to be a difficult disease to model in animals given the primate-specific origins of DUX4, its sporadic activation and mosaic expression, as well as the complex epigenetic components associated with the disease. Our published DUX4 zebrafish model was the first to recapitulate the muscle-eye-ear combination of phenotypes described in human FSHD (FIGS. 1N-A, 1N-B, 1N-C). […] These established DUX4 models of FSHD provide for functional follow-up experiments for candidate genes identified in CRISPR screens.
# Drugs that show efficacy in vitro can be tested in a zebrafish model of FSHD. […] After injecting DUX4 into zebrafish, the test subjects were then treated with the four drug compounds 24 hr post-injection. Injected fish were categorized into affected or unaffected groups based on whole-body phenotype (FIG. 18A).
Structure (SMILES),efficacy in vitro measured by caspase 3/7 activity (DUX4 toxicity),caspase fluorescence (DUX4 inducible cell line),efficacy in patient cell lines [1],suppression of DUX4 toxicity (DUX4 toxicity; 20 uM),percentage of affected fish (whole-body phenotype) (DUX4-injected zebrafish),"FSHD biomarker levels (MBDL3L3, TRIM42, ZSCAN4) ([1]; patient primary myoblasts 16A and 17A, drug added at day four of differentiation, harvested 24 hours later)"
"O=c1cc(N2CCOCC2)oc2c(-c3ccccc3)cccc12 [LY294002, Ly294002]",showed efficacy in vitro,reduced caspase fluorescence,efficacy,–,–,–
CO[C@H]1[C@@H](OC)C[C@H](C)[C@@H](OC)C2=CC(=O)C=C(NC(=O)/C(C)=C/C=C\[C@H](OC)[C@@H](OC(N)=O)/C(C)=C/[C@@H]1C)C2=O [Herbimycin A],showed efficacy in vitro,reduced caspase fluorescence,efficacy,good suppression of DUX4 toxicity,significantly reduced; also recorded: significantly decreased percentage of affected fish,–
COC(=O)c1ccc(O)c(NC(=O)COc2ccc(C34CC5CC(CC(C5)C3)C4)cc2)c1 [Hif1a inhibitor],–,–,–,–,–,Dose-response reduction of biomarkers

# From patent US11674140B2, “Compositions and methods for treating facioscapulohumeral dystrophy” (THE CHILDREN'S MEDICAL CENTER CORPORATION, priority 2017, dated 2023)
